What was measured:
K562 = experiment: Cytotoxicity against human K562 cells assessed as growth inhibition at 10 uM after 48 hrs by SRB assay; type: functional; conditions: K562, 48 h, read-out: GI
M14 = experiment: Cytotoxicity against human M14 cells assessed as growth level at 10 uM after 48 hrs by SRB assay; type: functional
[1] = Cytotoxicity against human RXF393 cells assessed as growth inhibition at 10 uM after 48 hrs by SRB assay; type: functional; conditions: RXF 393, 48 h, read-out: GI
[2] = Cytotoxicity against human UACC62 cells assessed as growth level at 10 uM after 48 hrs by SRB assay; type: functional, UACC-62
[3] = Cytotoxicity against human LOXIMVI cells assessed as growth level at 10 uM after 48 hrs by SRB assay; type: functional, LOX IMVI
[4] = Cytotoxicity against human HL-60(TB) cells assessed as growth level at 10 uM after 48 hrs by SRB assay; type: functional
[5] = Cytotoxicity against human HCT15 cells assessed as growth inhibition at 10 uM after 48 hrs by SRB assay; type: functional; conditions: HCT-15, 48 h, read-out: GI
[6] = Cytotoxicity against human BT549 cells assessed as growth level at 10 uM after 48 hrs by SRB assay; type: functional, BT-549
[7] = Cytotoxicity against human DU145 cells assessed as growth level at 10 uM after 48 hrs by SRB assay; type: functional, DU-145
[8] = Cytotoxicity against human SNB75 cells assessed as growth level at 10 uM after 48 hrs by SRB assay; type: functional, SNB-75
Malme-3M [9] = experiment: Cytotoxicity against human MALME-3M cells assessed as growth inhibition at 10 uM after 48 hrs by SRB assay; type: functional; conditions: read-out: GI
Malme-3M [10] = experiment: Cytotoxicity against human MALME-3M cells assessed as growth level at 10 uM after 48 hrs by SRB assay; type: functional
SN12C = experiment: Cytotoxicity against human SN12C cells assessed as growth level at 10 uM after 48 hrs by SRB assay; type: functional
[11] = Cytotoxicity against human SW620 cells assessed as growth level at 10 uM after 48 hrs by SRB assay; type: functional, SW-620
[12] = Cytotoxicity against human HCC2998 cells assessed as growth inhibition at 10 uM after 48 hrs by SRB assay; type: functional; conditions: HCC 2998, 48 h, read-out: GI
ACHN = experiment: Cytotoxicity against human ACHN cells assessed as growth inhibition at 10 uM after 48 hrs by SRB assay; type: functional; conditions: read-out: GI
[13] = Cytotoxicity against human OVCAR8 cells assessed as growth inhibition at 10 uM after 48 hrs by SRB assay; type: functional; conditions: OVCAR-8, 48 h, read-out: GI
NCI-H226 = experiment: Cytotoxicity against human NCI-H226 cells assessed as growth level at 10 uM after 48 hrs by SRB assay; type: functional
[14] = Cytotoxicity against human OVCAR4 cells assessed as growth level at 10 uM after 48 hrs by SRB assay; type: functional, OVCAR-4
U-251 [15] = experiment: Cytotoxicity against human U251 cells assessed as growth inhibition at 10 uM after 48 hrs by SRB assay; type: functional; conditions: U-251, 48 h, read-out: GI
CCRF-CEM [16] = experiment: Cytotoxicity against human CCRF-CEM cells assessed as growth level at 10 uM after 48 hrs by SRB assay; type: functional
[17] = Cytotoxicity against human MOLT4 cells assessed as growth inhibition at 10 uM after 48 hrs by SRB assay; type: functional; conditions: MOLT-4, 48 h, read-out: GI
[18] = Cytotoxicity against human PC3 cells assessed as growth inhibition at 10 uM after 48 hrs by SRB assay; type: functional; conditions: PC-3, 48 h, read-out: GI
[19] = Cytotoxicity against human SW620 cells assessed as growth inhibition at 10 uM after 48 hrs by SRB assay; type: functional; conditions: SW-620, 48 h, read-out: GI
[20] = Cytotoxicity against human SF295 cells assessed as growth inhibition at 10 uM after 48 hrs by SRB assay; type: functional; conditions: SF-295, 48 h, read-out: GI
[21] = Cytotoxicity against human UACC257 cells assessed as growth inhibition at 10 uM after 48 hrs by SRB assay; type: functional; conditions: UACC-257, 48 h, read-out: GI
NCI-H23 = experiment: Cytotoxicity against human NCI-H23 cells assessed as growth level at 10 uM after 48 hrs by SRB assay; type: functional
MDA-MB-468 [22] = experiment: Cytotoxicity against human MDA-MB-468 cells assessed as growth inhibition at 10 uM after 48 hrs by SRB assay; type: functional; conditions: MDA-MB-468, 48 h, read-out: GI
[23] = Cytotoxicity against human NCI-ADR-RES cells assessed as growth level at 10 uM after 48 hrs by SRB assay; type: functional
MDA-MB-468 [24] = experiment: Cytotoxicity against human MDA-MB-468 cells assessed as growth level at 10 uM after 48 hrs by SRB assay; type: functional
786-0 = experiment: Cytotoxicity against human 786-0 cells assessed as growth level at 10 uM after 48 hrs by SRB assay; type: functional
[25] = Cytotoxicity against human HCT116 cells assessed as growth level at 10 uM after 48 hrs by SRB assay; type: functional, HCT-116
[26] = Cytotoxicity against human COLO205 cells assessed as growth inhibition at 10 uM after 48 hrs by SRB assay; type: functional; conditions: COLO 205, 48 h, read-out: GI
NCI-H322M = experiment: Cytotoxicity against human NCI-H322M cells assessed as growth inhibition at 10 uM after 48 hrs by SRB assay; type: functional; conditions: read-out: GI
[27] = Cytotoxicity against human SF295 cells assessed as growth level at 10 uM after 48 hrs by SRB assay; type: functional, SF-295
[28] = Cytotoxicity against human RPMI8226 cells assessed as growth inhibition at 10 uM after 48 hrs by SRB assay; type: functional; conditions: RPMI-8226, 48 h, read-out: GI
CCRF-CEM [29] = experiment: Cytotoxicity against human CCRF-CEM cells assessed as growth inhibition at 10 uM after 48 hrs by SRB assay; type: functional; conditions: read-out: GI
A498 [30] = experiment: Cytotoxicity against human A498 cells assessed as growth level at 10 uM after 48 hrs by SRB assay; type: functional
MDA-MB-435 = experiment: Cytotoxicity against human MDA-MB-435 cells assessed as growth inhibition at 10 uM after 48 hrs by SRB assay; type: functional; conditions: MDA-MB-435, 48 h, read-out: GI
SK-MEL-28 [31] = experiment: Cytotoxicity against human SK-MEL-28 cells assessed as growth level at 10 uM after 48 hrs by SRB assay; type: functional
[32] = Cytotoxicity against human SNB19 cells assessed as growth inhibition at 10 uM after 48 hrs by SRB assay; type: functional; conditions: SNB-19, 48 h, read-out: GI
A498 [33] = experiment: Cytotoxicity against human A498 cells assessed as growth inhibition at 10 uM after 48 hrs by SRB assay; type: functional; conditions: A498, 48 h, read-out: GI
U-251 [34] = experiment: Cytotoxicity against human U251 cells assessed as growth level at 10 uM after 48 hrs by SRB assay; type: functional
SK-MEL-28 [35] = experiment: Cytotoxicity against human SK-MEL-28 cells assessed as growth inhibition at 10 uM after 48 hrs by SRB assay; type: functional; conditions: SK-MEL-28, 48 h, read-out: GI

C=C1CC[C@@H]2[C@](C)(COC(C)=O)[C@H](OC(C)=O)CC[C@@]2(C)[C@@H]1CC(NCc1cccc(Cl)c1)C1=CCOC1=O (mixture of isomers)
inhibition of growth at 10 µM (K562): 81.5% | Activity (M14): 55.02% | inhibition of growth at 10 µM [1]: 49.5% | Activity [2]: 41.2% | Activity [3]: 12.71% | Activity [4]: 21.57% | inhibition of growth at 10 µM [5]: 62.3% | Activity [6]: 49.66% | Activity [7]: 81.85% | Activity [8]: 85.86% | inhibition of growth at 10 µM (Malme-3M [9]): 23.9% | Activity (Malme-3M [10]): 76.11% | Activity (SN12C): 62.07% | Activity [11]: 38.27% | inhibition of growth at 10 µM [12]: 15.4% | inhibition of growth at 10 µM (ACHN): 58.4% | inhibition of growth at 10 µM [13]: 57.3% | Activity (NCI-H226): 46.32% | Activity [14]: 50.4% | inhibition of growth at 10 µM (U-251 [15]): 69.1% | Activity (CCRF-CEM [16]): 42.29% | inhibition of growth at 10 µM [17]: 78.1% | inhibition of growth at 10 µM [18]: 69.9% | inhibition of growth at 10 µM [19]: 61.7% | inhibition of growth at 10 µM [20]: 14.1% | inhibition of growth at 10 µM [21]: 74.8% | Activity (NCI-H23): 52.71% | inhibition of growth at 10 µM (MDA-MB-468 [22]): 74.4% | Activity [23]: 60.33% | Activity (MDA-MB-468 [24]): 25.62% | Activity (786-0): 62% | Activity [25]: 35.94% | inhibition of growth at 10 µM [26]: 63.2% | inhibition of growth at 10 µM (NCI-H322M): 24.6% | Activity [27]: 85.92% | inhibition of growth at 10 µM [28]: 72.8% | inhibition of growth at 10 µM (CCRF-CEM [29]): 57.7% | Activity (A498 [30]): 64.78% | inhibition of growth at 10 µM (MDA-MB-435): 48.4% | Activity (SK-MEL-28 [31]): 76.6% | inhibition of growth at 10 µM [32]: 44.4% | inhibition of growth at 10 µM (A498 [33]): 35.2% | Activity (U-251 [34]): 30.91% | inhibition of growth at 10 µM (SK-MEL-28 [35]): 23.4%

C=C1CC[C@@H]2[C@](C)(COC(C)=O)[C@H](OC(C)=O)CC[C@@]2(C)[C@@H]1CC(NCCCCCCCC)C1=CCOC1=O (mixture of isomers)
inhibition of growth at 10 µM (K562): 65.3% | Activity (M14): 75.91% | inhibition of growth at 10 µM [1]: 14.3% | Activity [2]: 47.66% | Activity [3]: 53.89% | Activity [4]: 58.93% | inhibition of growth at 10 µM [5]: 33% | Activity [6]: 69.6% | Activity [7]: 88.73% | Activity [8]: 74.62% | inhibition of growth at 10 µM (Malme-3M [9]): 15.8% | Activity (Malme-3M [10]): 84.15% | Activity (SN12C): 73.09% | Activity [11]: 72.43% | inhibition of growth at 10 µM [12]: 8.56% | inhibition of growth at 10 µM (ACHN): 14% | inhibition of growth at 10 µM [13]: 29% | Activity (NCI-H226): 65.82% | Activity [14]: 52.34% | inhibition of growth at 10 µM (U-251 [15]): 44.5% | Activity (CCRF-CEM [16]): 47.26% | inhibition of growth at 10 µM [17]: 63.5% | inhibition of growth at 10 µM [18]: 66.4% | inhibition of growth at 10 µM [19]: 27.6% | inhibition of growth at 10 µM [20]: 19% | inhibition of growth at 10 µM [21]: 38.9% | Activity (NCI-H23): 70.76% | inhibition of growth at 10 µM (MDA-MB-468 [22]): 68% | Activity [23]: 87.68% | Activity (MDA-MB-468 [24]): 32.04% | Activity (786-0): 79.87% | Activity [25]: 35.89% | inhibition of growth at 10 µM [26]: 29.2% | inhibition of growth at 10 µM (NCI-H322M): 1.99% | Activity [27]: 81% | inhibition of growth at 10 µM [28]: 64% | inhibition of growth at 10 µM (CCRF-CEM [29]): 52.7% | Activity (A498 [30]): 64.34% | inhibition of growth at 10 µM (MDA-MB-435): 22.4% | Activity (SK-MEL-28 [31]): 85.58% | inhibition of growth at 10 µM [32]: 21.2% | inhibition of growth at 10 µM (A498 [33]): 35.7% | Activity (U-251 [34]): 55.53% | inhibition of growth at 10 µM (SK-MEL-28 [35]): 14.4%

Reference: ChEMBL document CHEMBL3734705, “Synthesis and in vitro cytotoxicity of novel C-12 substituted-14-deoxy-andrographolide derivatives as potent anti-cancer agents” (2015)
